We go through three compounds from US20080206881A1, “DIAGNOSTIC MARKER FOR NEURODEGENERATIVE DISEASES” (priority 2007, published 2008).

Entries after “also recorded” stand apart in the source; their conditions may differ. Where two headings read alike, the source gives them in different places.

Data set [1] relates to ALS patients. The conditions noted are these: cited from earlier work.
Data set [2] deals with ALS patients. Briefly: Serum protein carbonyl determination in ALS patients (2,4-dinitrophenylhydrazine method). To be noted: for serum protein carbonyl level under high-dose vitamin E: ALS patients (n=12) on high-dose vitamin E for 10.4±2.5 months before starting melatonin. In kind it is in vivo, human. An excerpt:
Protein carbonyl content of blood serum and other body fluids can be determined according to the 2,4-dinitrophenylhydrazine method described by Levine et al. (Levine Methods Enzymol 1990: 186: 464-478). The protein content can be measured according to Lowry et al. (Lowry J Biol Chem 1951: 193: 265-275) to enable a normalization of the protein carbonyl level. Other suitable methods and reagents known in the field to measure protein content and/or the content of protein carbonyls can also be used. Protein carbonyl measurements were performed in the serum of 19 consecutively admitted ALS patients (61.7±1.9 yr, 12 males, […] daily as suppositories at bedtime) and of ten healthy controls (61.2±2.0 years, five males, five females). Protein carbonyls were determined by a variant of the 2,4-dinitrophenylhydrazine method (Levine Methods Enzymol 1990: 186: 464-478). Serum was diluted 1:10 with ice-cold 5-mM pf potassium phosphate buffer, pH 7.5, containing leupeptin (0.5 μg/mL), aprotinin (0.5 μg/mL), and pepstatin A (0.7 μg/mL); 300 μL was used for a single determination. Deviations from the original procedure concerned elimination of the chromogen: protein pellets were washed three times with 1 mL of ethanol/ ethylacetate (1:1); particular attention was given to thorough resuspension (vortexing) and complete removal of the supernatant using Pasteur pipettes, and thereafter, stripes of blotting paper. Protein was measured according to Lowry et al. (Lowry J Biol Chem 1951: 193: 265-275).

Data set [3] has as its system ALS mouse model. To be noted: high-dose oral melatonin; U.S. Pub. No. 2004/0192745; cited from earlier work.
For data set [4], the system named is ALS patients. The data set is described as follows: Clinical outcome (ALSFRS) of ALS patients with or without continuous high-dose vitamin E. In kind it is in vivo, human. The conditions noted are these: ALSFRS after 1 yr of melatonin treatment. An excerpt:
Remarkably, most of these patients (n=12) had already been on high-dose vitamin E, another antioxidant, for 10.4±2.5 months before starting the melatonin treatment.

In data set [5] the test system is ALS. The conditions noted are these: cited from earlier work; for clinical efficacy in ALS: clinical setting, literature.
The test system of data set [6] is Alzheimer's disease (AD). To be noted: in vivo; cited from earlier work.

Turning to `Nc1nc2ccc(OC(F)(F)F)cc2s1` [RILUZOLE®, 2-amino-6-(trifluoromethoxxy)benzothiazole], in data set [1], the “other important outcome measures” value is recorded as “lacked benefit”; the side effects result is “asthenia, nausea, anorexia, diarrhea, headache, and increase in liver transaminases; also recorded: enhances catabolism”.

As for `COc1ccc2[nH]cc(CCNC(C)=O)c2c1` [melatonin], the “serum protein carbonyl content after melatonin treatment” value in data set [2] (ALS patients n=19, 300 mg melatonin daily as suppositories at bedtime, mean treatment time 4.68±0.22 months, versus matched healthy controls n=10) was “decrease to levels of matched healthy controls; also recorded: normalized to control values; also recorded: fully reverted to control levels; also recorded: normalizes the serum protein carbonyl level to control level”. In addition, the “survival of ALS mouse model” value in data set [3] is on record as “prolongation of survival; also recorded: exhibit efficacy”.

As for vitamin E, the “serum protein carbonyl level under high-dose vitamin E” value in data set [2] is recorded as “does not change the level of serum protein carbonyls”; in data set [2] (listed as Vitamin E) it was “does not decrease the serum protein carbonyl level”. Further, the “clinical outcome (ALSFRS)” value in data set [4] is “did not reveal any beneficial effect”. Moreover, in data set [5] (10-yr prospective study with over 900,000 individuals, regular intake of vitamin E), the “risk of developing ALS” value was “decreased risk of developing ALS”. Further, the “clinical efficacy in ALS” value is “did not reveal any beneficial effect; also recorded: none of the antioxidative compounds tested, including vitamin E, proved to be effective” in data set [5] and “ineffective in ALS treatment” in data set [5] (listed as Vitamin E). Also, the “disease progression in AD” value in data set [6] is “slowing of disease progression”.
